Reference: PMC9516332 (Frontiers in Oncology, 2022)
Like-named read-outs stand apart in the source and are kept apart here.

Experiments:
Assay in all cases: Kinase panel profiling at 1 µmol/L (MSA or IMAP), percentage inhibition
Assay type in all cases: biochemical
[1] = target: T1, panel of 255 wild-type kinases (Homo sapiens, UniProt O14757); conditions: read-out: %-inhibition CHK1
T1 sequence (O14757 1-476): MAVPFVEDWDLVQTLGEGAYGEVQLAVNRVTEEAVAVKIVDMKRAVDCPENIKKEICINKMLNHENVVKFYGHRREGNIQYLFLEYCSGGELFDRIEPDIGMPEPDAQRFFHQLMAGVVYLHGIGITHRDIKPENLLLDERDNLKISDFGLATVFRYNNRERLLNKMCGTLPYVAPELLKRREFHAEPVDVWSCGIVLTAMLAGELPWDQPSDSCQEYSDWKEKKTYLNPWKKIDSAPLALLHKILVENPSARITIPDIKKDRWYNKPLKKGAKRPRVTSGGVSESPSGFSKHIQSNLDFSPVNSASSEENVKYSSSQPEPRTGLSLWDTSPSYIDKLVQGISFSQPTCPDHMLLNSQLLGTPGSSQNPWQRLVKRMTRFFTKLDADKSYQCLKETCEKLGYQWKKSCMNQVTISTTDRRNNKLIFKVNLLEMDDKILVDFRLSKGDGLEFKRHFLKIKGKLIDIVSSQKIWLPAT

[2] = target: panel of 255 wild-type kinases (Homo sapiens, UniProt P27361); conditions: read-out: %-inhibition at 1 µmol/L, Erk1
[3] = target: T2, panel of 255 wild-type kinases (Homo sapiens, UniProt P54760); conditions: read-out: %-inhibition at 1 µmol/L, EPHB4
T2 sequence (P54760 16-987): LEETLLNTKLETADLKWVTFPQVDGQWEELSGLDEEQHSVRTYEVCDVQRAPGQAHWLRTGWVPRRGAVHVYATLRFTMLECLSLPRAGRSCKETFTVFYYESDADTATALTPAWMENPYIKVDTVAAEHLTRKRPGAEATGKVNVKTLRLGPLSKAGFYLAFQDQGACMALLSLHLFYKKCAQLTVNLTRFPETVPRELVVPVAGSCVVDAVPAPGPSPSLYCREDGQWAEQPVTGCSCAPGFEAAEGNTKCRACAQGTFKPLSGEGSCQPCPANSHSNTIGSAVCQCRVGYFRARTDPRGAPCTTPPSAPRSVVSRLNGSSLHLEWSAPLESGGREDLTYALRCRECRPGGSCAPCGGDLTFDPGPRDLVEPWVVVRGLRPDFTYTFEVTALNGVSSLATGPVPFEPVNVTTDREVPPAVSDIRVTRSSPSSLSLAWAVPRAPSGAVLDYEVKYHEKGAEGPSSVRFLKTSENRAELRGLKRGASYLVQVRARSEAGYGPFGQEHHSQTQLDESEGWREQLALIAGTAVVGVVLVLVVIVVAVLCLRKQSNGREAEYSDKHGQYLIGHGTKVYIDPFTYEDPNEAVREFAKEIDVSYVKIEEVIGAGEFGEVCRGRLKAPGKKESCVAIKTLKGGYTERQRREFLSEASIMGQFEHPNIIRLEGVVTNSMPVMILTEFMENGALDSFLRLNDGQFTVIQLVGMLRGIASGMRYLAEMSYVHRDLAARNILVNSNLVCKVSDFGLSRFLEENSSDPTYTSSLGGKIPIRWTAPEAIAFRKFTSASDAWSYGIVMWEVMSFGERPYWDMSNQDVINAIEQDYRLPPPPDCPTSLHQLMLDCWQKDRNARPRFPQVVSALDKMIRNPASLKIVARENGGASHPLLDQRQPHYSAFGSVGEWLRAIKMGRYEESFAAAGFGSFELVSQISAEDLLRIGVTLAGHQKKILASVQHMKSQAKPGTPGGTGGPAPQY

[4] = target: panel of 255 wild-type kinases (Homo sapiens, UniProt Q7KZI7); conditions: read-out: %-inhibition, MARK2
[5] = target: T3, panel of 255 wild-type kinases (Homo sapiens, UniProt Q9NZJ5); conditions: read-out: %-inhibition at 1 µmol/L, PEK
T3 sequence (Q9NZJ5 30-1116): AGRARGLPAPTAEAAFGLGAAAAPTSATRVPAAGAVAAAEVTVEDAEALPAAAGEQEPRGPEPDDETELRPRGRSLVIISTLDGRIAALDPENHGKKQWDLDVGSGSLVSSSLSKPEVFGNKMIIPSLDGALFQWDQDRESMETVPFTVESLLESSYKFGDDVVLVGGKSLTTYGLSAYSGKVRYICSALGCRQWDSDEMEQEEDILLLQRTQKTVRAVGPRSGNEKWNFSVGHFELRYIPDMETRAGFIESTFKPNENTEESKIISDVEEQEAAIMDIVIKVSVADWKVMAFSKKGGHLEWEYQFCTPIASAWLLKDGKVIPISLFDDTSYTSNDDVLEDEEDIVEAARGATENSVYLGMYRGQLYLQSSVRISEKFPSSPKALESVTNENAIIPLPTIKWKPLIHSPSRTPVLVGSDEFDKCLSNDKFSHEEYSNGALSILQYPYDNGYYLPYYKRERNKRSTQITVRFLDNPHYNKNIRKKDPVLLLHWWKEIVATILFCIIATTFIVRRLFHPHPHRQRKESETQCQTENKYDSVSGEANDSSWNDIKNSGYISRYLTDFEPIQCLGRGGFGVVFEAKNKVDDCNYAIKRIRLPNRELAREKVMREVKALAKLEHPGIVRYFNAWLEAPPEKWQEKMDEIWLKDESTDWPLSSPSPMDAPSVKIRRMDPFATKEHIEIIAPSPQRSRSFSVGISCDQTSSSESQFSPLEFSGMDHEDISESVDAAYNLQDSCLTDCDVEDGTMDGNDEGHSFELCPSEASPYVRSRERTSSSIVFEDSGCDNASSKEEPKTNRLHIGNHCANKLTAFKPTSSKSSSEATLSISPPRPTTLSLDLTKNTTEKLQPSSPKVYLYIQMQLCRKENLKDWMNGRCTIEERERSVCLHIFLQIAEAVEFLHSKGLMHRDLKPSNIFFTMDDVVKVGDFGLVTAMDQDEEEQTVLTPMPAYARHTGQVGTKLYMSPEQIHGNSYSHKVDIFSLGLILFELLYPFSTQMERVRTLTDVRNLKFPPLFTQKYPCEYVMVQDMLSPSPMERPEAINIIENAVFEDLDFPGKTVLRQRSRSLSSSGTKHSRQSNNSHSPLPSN

[6] = CHK1 kinase assay, 1 µmol/L single concentration
[7] = kinase Erk1, 1 µmol/L single concentration
[8] = kinase EPHB4, 1 µmol/L single concentration
[9] = MARK2, 1 µmol/L single concentration
[10] = kinase PEK, 1 µmol/L single concentration

| SMILES | inhibition at 1 µM [1, 6] [%] | inhibition at 1 µM [2, 7] [%] | inhibition at 1 µM [3, 8] [%] | inhibition at 1 µM [4, 9] [%] | inhibition at 1 µM [5, 10] [%] | inhibition at 1 µM [1] [%] | inhibition at 1 µM [2] [%] | inhibition at 1 µM [3] [%] | inhibition at 1 µM [4] [%] | inhibition at 1 µM [5] [%] |
| --- | --- | --- | --- | --- | --- | --- | --- | --- | --- | --- |
| CO[C@]1(C(=O)N[C@@H](C)c2ccc(-n3cc(F)cn3)nc2)CC[C@H](c2nc(C)cc(Nc3cc(C)[nH]n3)n2)CC1 [pralsetinib] | 11 | -3 | 56 | -15 | 2.26 |  |  |  |  |  |
| COc1cc2ncnc(Nc3ccc(F)c(Cl)c3)c2cc1NC(=O)/C=C/CN1CCCCC1 [dacomitinib] | 10 | 2.66 | 62 | -0.433 | 2.82 |  |  |  |  |  |
| CCn1c(=O)c(-c2cc(NC(=O)Nc3ccccc3)c(F)cc2Br)cc2cnc(NC)cc21 [ripretinib] | 3.57 | 2.79 | 90 | -2.22 | 9 |  |  |  |  |  |
| Cc1nc(NC(=O)N2CCC[C@H]2C(N)=O)sc1-c1ccnc(C(C)(C)C(F)(F)F)c1 [alpelisib] | 11 | -0.813 | 3.19 | -0.36 | 10 |  |  |  |  |  |
| C=CC(=O)N1CCC([C@@H]2CCNc3c(C(N)=O)c(-c4ccc(Oc5ccccc5)cc4)nn32)CC1 [zanubrutinib] | 16 | -9 | -2.82 | -21 | 2 |  |  |  |  |  |
| O=C(Nc1cnn2ccc(N3CCC[C@@H]3c3cc(F)ccc3F)nc12)N1CC[C@H](O)C1 [larotrectinib] | 14 | -14 | -2.17 | -19 | 4 |  |  |  |  |  |
| Cc1cc(Nc2ncnc3ccc(NC4=NC(C)(C)CO4)cc23)ccc1Oc1ccn2ncnc2c1 [tucatinib] | 5.71 | -2.6 | -0.489 | -12 | 1.59 |  |  |  |  |  |
| FC(F)(F)c1ccc(CNc2ccc(Cc3c[nH]c4ncc(Cl)cc34)cn2)cn1 [pexidartinib] | 5.6 | 2.66 | -2 | 5.3 | -10 |  |  |  |  |  |
| Cn1cnc2c(F)c(Nc3ccc(Br)cc3F)c(C(=O)NOCCO)cc21 [binimetinib] | 9 | -4.32 | -0.0401 | -6 | 4.67 |  |  |  |  |  |
| CN1CCN(c2ccc(C(=O)Nc3n[nH]c4ccc(Cc5cc(F)cc(F)c5)cc34)c(NC3CCOCC3)c2)CC1 [entrectinib] | 14 | -0.529 | 73 | 9 | 0.561 |  |  |  |  |  |
| COC(=O)N[C@@H](C)CNc1nccc(-c2cn(C(C)C)nc2-c2cc(Cl)cc(NS(C)(=O)=O)c2F)n1 [encorafenib] | 14 | -0.942 | -0.672 | 5.68 | 9 |  |  |  |  |  |
| C[C@H]1Oc2cc(cnc2N)-c2c(nn(C)c2C#N)CN(C)C(=O)c2ccc(F)cc21 [lorlatinib] | 12 | 3 | 43 | 11 | -1.65 |  |  |  |  |  |
| CCN1CCN(c2ccc(Nc3cc(N(C)C(=O)Nc4c(Cl)c(OC)cc(OC)c4Cl)ncn3)cc2)CC1 [infigratinib] | -1.07 | -4 | -0.369 | -9 | 49 |  |  |  |  |  |
| COc1ccc(CN2C3CC2CN(c2ccc(-c4cc(OCC(C)(C)O)cn5ncc(C#N)c45)cn2)C3)cn1 [selpercatinib] | 29 | -7.44 | 73 | 26 | 2.16 |  |  |  |  |  |
| Cn1cnc2c(F)c(Nc3ccc(Br)cc3Cl)c(C(=O)NOCCO)cc21 [selumetinib] | 2.73 | -4.67 | 0.674 | -14 | -0.188 |  |  |  |  |  |
| CCc1nc(C(N)=O)c(Nc2ccc(N3CCC(N4CCN(C)CC4)CC3)c(OC)c2)nc1NC1CCOCC1 [gilteritinib] | 22 | 1.85 | 74 | 43 |  |  |  |  |  |  |
| CCN1C(=O)N(c2c(F)c(OC)cc(OC)c2F)Cc2cnc3[nH]c(CN4CCOCC4)cc3c21 [pemigatinib] | 12 | -8.52 | -3 | 50 | 17 |  |  |  |  |  |
| Cn1cc(-c2cc3c(N4CCN(c5ncc([C@@](C)(N)c6ccc(F)cc6)cn5)CC4)ncnn3c2)cn1 [avapritinib] | 40 | -1.84 | 34 | -12 | 1.51 |  |  |  |  |  |
| CNC(=O)c1ccc(-c2cnc3ncc(Cc4ccc5ncccc5c4)n3n2)cc1F [capmatinib] |  |  |  |  |  | 0.209 | 2.84 | -1.2 | -8 | 4.25 |
| C[C@H](Nc1ncnc2nc[nH]c12)c1cc2cccc(Cl)c2c(=O)n1-c1ccccc1 [duvelisib] | 5.69 | 2.77 | 3.24 | -2.13 | 5.65 |  |  |  |  |  |
